pIC50: −log10 of the molar value.
Key:
[1] = tested on: WS‐12‐evoked action potentials in primary cultures of murine DRG sensory neurons; test: Multielectrode array (MEA): WS-12-evoked action potential firing in DRG sensory neurons; format: cell-based; details: Mus musculus, Neuron; 0.43 μM compound, 1 μM WS-12, MEA, P2/P1; read-out: inhibition of WS‐12‐induced action potential firing
Experimental: Complementarily, we examined the effect of compound 23 on WS‐12‐evoked action potentials in primary cultures of murine DRG sensory neurons. For this task, we recorded neuronal excitability using multielectrode arrays (MEAs). […] A protocol of two sequential pulses of WS‐12 interspersed with a washing pulse was applied to correct for channel desensitization (Fig. 7A, upper recording). Compounds 23 and AMTB (0.43 and 10 μM, respectively) were applied 1 min before and during the second WS‐12 pulse (Fig. 7A, second, third, and fourth recordings). As depicted in Fig. 7B, compound 23 virtually abolished action potential firings induced by WS‐12 application in murine primary afferent neurons (≥ 75%). Thus, compound 23 appears to be a potent inhibitor of WS12‐evoked firing frequency, even surpassing the efficacy of AMTB […] (Fig. 7B).
Primary cultures of neonatal dorsal root ganglia were used for multielectrode array (MEA) and patch‐clamp experiments following established methodologies previously described. Neonatal dorsal root ganglia (DRGs) were obtained from Wistar rats (3–5 days old) and were isolated and digested with 0.25% (w/v) collagenase (type IA) in DMEM GlutaMax with 1% (v/v) penicillin/streptomycin (P/S) solution for 1 h at 37 °C in a 5% CO2 Thermo Scientific incubator. […]

[2] = target: T1, recombinant human TRPM8 stably expressed in HEK293 cells (hTRPM8) (Homo sapiens, UniProt Q7Z2W7); test: Ca2+ microfluorimetry screen for agonist/antagonist activity in hTRPM8-HEK293 cells; format: cell-based
T1 construct: expressed in transfected cells
Text: We first evaluated the series of compounds 20–29 synthesized using the Passerini‐Adamantane reaction. All compounds were screened for channel agonism and antagonism on recombinant human TRPM8 stably expressed in HEK293 cells (hTRPM8‐HEK293) with Ca^2+ microfluorimetry. […] Compound‐induced TRPM8‐mediated Ca^2+ influx was confirmed using untransfected HEK293 cells and the channel blocker AMTB. […] The concentration of compounds to reach half of channel activation (EC50) or to block half‐channel activity evoked by WS‐12 (IC50) are reported in Table 1, along with the percentage of maximal activation or blockade (Efficacy).
Assays were conducted to assess the channel activity of the recombinant hTRPM8 stably expressed in HEK‐293 cells. HEK‐293‐hTRPM8 cells were cultured in a monolayer using a DMEM GlutaMax with 10% FBS and 1% P/S and maintained at 37 °C in 5% CO2. For experiments, cells were prepared and seeded at the indicated densities. To evaluate compound effectiveness against hTRPM8 activity, microfluorometry‐based calcium flux assays were performed using Fluo‐4 NW Ca^2+ dye and fluorescence detection. HEK cell lines expressing hTRPM8 were seeded in 96‐well plates and incubated with the dye‐loading solution. Ion channel activity was measured using a plate reader, and fluorescence intensity changes were recorded following the addition of vehicle, compound at varying concentrations, and antagonist (10 μM AMTB). Data analysis included calculating the Z‐factor for each assay and normalizing compound effects to […]. Data were analyzed to determine the concentration exerting half‐maximal inhibition (IC50) or activation (EC50) of agonist‐induced calcium elevation, using GRAPHPAD PRISM8® software (Boston, MA, USA). All experiments were conducted in triplicate, and results are presented as mean ± standard deviation.

T1 sequence (Q7Z2W7 whole entry): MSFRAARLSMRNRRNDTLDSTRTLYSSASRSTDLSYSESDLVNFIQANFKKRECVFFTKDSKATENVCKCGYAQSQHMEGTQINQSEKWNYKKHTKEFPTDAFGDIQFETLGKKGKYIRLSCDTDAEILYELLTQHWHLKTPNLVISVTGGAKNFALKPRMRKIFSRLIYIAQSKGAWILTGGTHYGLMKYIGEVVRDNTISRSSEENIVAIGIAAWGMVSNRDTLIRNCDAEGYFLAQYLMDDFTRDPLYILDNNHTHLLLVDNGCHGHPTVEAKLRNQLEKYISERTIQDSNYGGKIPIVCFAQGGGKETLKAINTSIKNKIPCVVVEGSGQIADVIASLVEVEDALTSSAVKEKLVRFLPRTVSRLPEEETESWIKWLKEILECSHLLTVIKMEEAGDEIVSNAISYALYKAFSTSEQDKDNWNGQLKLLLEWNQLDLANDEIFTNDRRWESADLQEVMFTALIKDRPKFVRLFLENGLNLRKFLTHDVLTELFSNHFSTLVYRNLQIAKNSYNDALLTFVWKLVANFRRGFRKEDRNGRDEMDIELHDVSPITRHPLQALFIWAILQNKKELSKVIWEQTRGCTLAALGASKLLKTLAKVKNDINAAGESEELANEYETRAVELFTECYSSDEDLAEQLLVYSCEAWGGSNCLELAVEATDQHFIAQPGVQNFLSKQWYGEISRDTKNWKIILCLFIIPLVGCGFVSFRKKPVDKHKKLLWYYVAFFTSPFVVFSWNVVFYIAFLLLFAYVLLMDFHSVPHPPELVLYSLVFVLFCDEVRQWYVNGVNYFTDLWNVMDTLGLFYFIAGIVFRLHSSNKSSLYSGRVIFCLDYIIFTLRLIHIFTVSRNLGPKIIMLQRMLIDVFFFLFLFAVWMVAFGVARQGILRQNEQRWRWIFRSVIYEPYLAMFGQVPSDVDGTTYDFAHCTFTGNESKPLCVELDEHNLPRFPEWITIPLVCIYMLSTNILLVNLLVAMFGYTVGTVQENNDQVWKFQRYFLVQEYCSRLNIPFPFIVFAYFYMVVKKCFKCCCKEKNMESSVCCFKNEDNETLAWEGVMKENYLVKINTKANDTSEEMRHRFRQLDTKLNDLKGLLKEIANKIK

Activity (agonist/antagonist) ([2]; hTRPM8-HEK293, agonism = compound-induced Ca2+ influx, antagonism = modulation of WS-12-induced Ca2+ influx): Antagonist | pIC50 ([2]; hTRPM8-HEK293, block of half channel activity evoked by WS-12, mean ± SD, N = 3, read-out: IC50): 6.70 | Hill coefficient ([2]; hTRPM8-HEK293 Ca2+ microfluorimetry dose-response, mean ± SD): 0.5 ± 0.9
Structure (SMILES): O=C(COC(=O)c1ccccc1-c1ccccc1)NC12CC3CC(CC(C3)C1)C2 [Compound 23, 2‐((3S,5S,7S)‐adamantan‐1‐ylamino)‐2‐oxoethyl [1,1′‐biphenyl]‐2‐carboxylate]
inhibition at 0.43 µM [1]: ≥ 75%
